Reference: ChEMBL document CHEMBL4152347 (J Med Chem, 2018)
Converted amounts (≈) assume the structure as drawn.

Assays:
[1] = Cmax in Sprague-Dawley rat at 5 mg/kg, po treated with 10 mg/kg elacridar immediately after compound dosing; type: ADME, organism-based; parameters: dose 5 mg/kg, route oral; conditions: in vivo, with elacridar 10 mg/kg
[2] = Solubility of compound in fed state simulated intestinal fluid at pH 5; type: physicochemical
[3] = AUC (0 to infinity) in CD1 mouse at 5 mg/kg, po administered via gavage; type: ADME, organism-based; parameters: dose 5 mg/kg, time infinity, route oral; conditions: in vivo
[4] = Volume of distribution at steady state in cynomolgus monkey at 1 mg/kg, iv; type: ADME, organism-based, Macaca fascicularis; conditions: in vivo, read-out: Vdss
[5] = Tmax in beagle dog at 5 mg/kg, po administered via gavage as microsuspension pre-treated with 6 ug/kg, im pentagastrin 15 to 30 mins before compound dosing; type: ADME, organism-based, Canis lupus familiaris; conditions: in vivo
[6] = Volume of distribution at steady state in CD1 mouse at 1 mg/kg, iv; type: ADME, organism-based; conditions: in vivo, read-out: Vdss
in vivo = conditions: Sprague-Dawley, rat, po, 5 mg/kg
Salmonella typhimurium [7] = test: Mutagenicity in Salmonella typhimurium TA98 in absence of Aroclor 1254-induced rat liver S9 fraction at up to 1600 ug/plate; type: toxicity, organism-based; conditions: salmonella enterica subsp. enterica serovar typhimurium
Canis familiaris [8] = test: Oral bioavailability in beagle dog at 5 mg/kg administered via gavage as microsuspension along with high fat meal; type: ADME, organism-based, Canis lupus familiaris; conditions: in vivo
Salmonella typhimurium [9] = test: Mutagenicity in Salmonella typhimurium TA100 in absence of Aroclor 1254-induced rat liver S9 fraction at up to 1600 ug/plate; type: toxicity, organism-based; conditions: salmonella enterica subsp. enterica serovar typhimurium
Canis familiaris [10] = test: Tmax in beagle dog at 1 mg/kg, iv; type: ADME, organism-based, Canis lupus familiaris; conditions: in vivo
[11] = Cmax in beagle dog at 5 mg/kg, po administered via gavage as microsuspension pre-treated with 40 mg famotidine in capsule form 1 hr before compound dosing; type: ADME, organism-based, Canis lupus familiaris; parameters: dose 5 mg/kg, route oral; conditions: in vivo
[12] = Solubility of compound in fasted state simulated intestinal fluid at pH 6.5; type: physicochemical
Canis familiaris [13] = test: AUC (0 to infinity) in beagle dog at 1 mg/kg, iv; type: ADME, organism-based, Canis lupus familiaris; parameters: dose 1 mg/kg, route intravenous, time infinity; conditions: in vivo
[14] = Oral bioavailability in beagle dog at 5 mg/kg administered as solution; type: ADME, organism-based, Canis lupus familiaris; conditions: in vivo
in vitro [15] = conditions: human, liver microsomes
Description: Half life in human liver microsomes at 0.5 uM after 1 hr in presence of NADPH by LC-MS/MS analysis

[16] = Half life in rat hepatocytes at 0.5 uM after 1 hr in presence of NADPH by LC-MS/MS analysis; type: ADME, cell-based, Hepatocyte
[17] = Tmax in CD1 mouse at 5 mg/kg, po administered via gavage; type: ADME, organism-based; conditions: in vivo
[18] = AUC (0 to infinity) in Sprague-Dawley rat at 5 mg/kg, id; type: ADME, organism-based; parameters: dose 5 mg/kg, time infinity; conditions: in vivo
in vitro [19] = conditions: rat, liver microsomes
Description: Half life in rat liver microsomes at 0.5 uM after 1 hr in presence of NADPH by LC-MS/MS analysis

[20] = Tmax in beagle dog at 5 mg/kg, po administered via gavage as microsuspension pre-treated with 40 mg famotidine in capsule form 1 hr before compound dosing; type: ADME, organism-based, Canis lupus familiaris; conditions: in vivo
[21] = Protein binding in mouse serum at 53 nM after 1 hr by ultracentrifugation assay; type: ADME, cell-free; conditions: read-out: PB (converted)
[22] = Volume of distribution at steady state in Sprague-Dawley rat at 1 mg/kg, iv; type: ADME, organism-based; conditions: in vivo, read-out: Vdss
[23] = Stability of the compound in human liver microsomes in presence of […]; type: ADME, microsome
[24] = Half life in dog liver microsomes at 0.5 uM after 1 hr in presence of NADPH by LC-MS/MS analysis; type: ADME, Canis lupus familiaris, microsome
Gag-Pol polyprotein [25] = biological target: Gag-Pol polyprotein (Human immunodeficiency virus type 1 group M subtype B (isolate HXB2)(HIV-1), UniProt P04585)
Description: Binding affinity to HIV1 gag polyprotein delta V370 mutant containing viral like particle

[26] = Tmax in Sprague-Dawley rat at 5 mg/kg, po treated with 10 mg/kg elacridar immediately after compound dosing; type: ADME, organism-based; conditions: in vivo, with elacridar 10 mg/kg
physchem = conditions: aqueous
Description: Aqueous solubility of the compound

[27] = Bioavailability in Sprague-Dawley rat at 5 mg/kg, id; type: ADME, organism-based; conditions: in vivo
in vitro [28] = conditions: human, MT2 cells
Description: Cytotoxicity against human MT2 cells assessed as reduction in cell viability

[29] = Stability of the compound in human plasma at 1 uM after 2 hrs by LC-MS/MS analysis; type: ADME, cell-free
[30] = Cmax in beagle dog at 5 mg/kg, po administered via gavage as microsuspension pre-treated with 6 ug/kg, im pentagastrin 15 to 30 mins before compound dosing; type: ADME, organism-based, Canis lupus familiaris; conditions: in vivo
Gag-Pol polyprotein [31] = biological target: Gag-Pol polyprotein (Human immunodeficiency virus type 1 group M subtype B (isolate HXB2)(HIV-1), UniProt P04585, V362I)
[32] = Protein binding in rat serum at 53 nM after 1 hr by ultracentrifugation assay; type: ADME, cell-free; conditions: read-out: PB (converted)
[33] = Cmax in MDR1 a/b knockout mouse at 5 mg/kg, po administered via gavage; type: ADME, organism-based; parameters: dose 5 mg/kg, route oral; conditions: in vivo
[34] = Total plasma clearance in CD1 mouse at 1 mg/kg, iv; type: ADME, organism-based
Salmonella typhimurium [35] = test: Mutagenicity in Salmonella typhimurium TA100 in presence of Aroclor 1254-induced rat liver S9 fraction at up to 1600 ug/plate; type: toxicity, organism-based; conditions: salmonella enterica subsp. enterica serovar typhimurium
[36] = AUC (0 to infinity) in CD1 mouse at 1 mg/kg, iv; type: ADME, organism-based; parameters: dose 1 mg/kg, route intravenous, time infinity; conditions: in vivo
[37] = Cmax in Sprague-Dawley rat at 5 mg/kg, po; type: ADME, organism-based; parameters: dose 5 mg/kg, route oral; conditions: in vivo
[38] = AUC (0 to infinity) in beagle dog at 5 mg/kg, po administered via gavage as microsuspension pre-treated with 6 ug/kg, im pentagastrin 15 to 30 mins before compound dosing; type: ADME, organism-based, Canis lupus familiaris; conditions: in vivo
Cytochrome P450 3A4 = Cytochrome P450 3A4 (Homo sapiens, UniProt P08684); test: Drug metabolism assessed as recombinant CYP3A4 (unknown origin)-mediated oxidative metabolism; type: ADME; conditions: recombinant enzyme
Cytochrome P450 3A4, sequence (P08684 whole entry): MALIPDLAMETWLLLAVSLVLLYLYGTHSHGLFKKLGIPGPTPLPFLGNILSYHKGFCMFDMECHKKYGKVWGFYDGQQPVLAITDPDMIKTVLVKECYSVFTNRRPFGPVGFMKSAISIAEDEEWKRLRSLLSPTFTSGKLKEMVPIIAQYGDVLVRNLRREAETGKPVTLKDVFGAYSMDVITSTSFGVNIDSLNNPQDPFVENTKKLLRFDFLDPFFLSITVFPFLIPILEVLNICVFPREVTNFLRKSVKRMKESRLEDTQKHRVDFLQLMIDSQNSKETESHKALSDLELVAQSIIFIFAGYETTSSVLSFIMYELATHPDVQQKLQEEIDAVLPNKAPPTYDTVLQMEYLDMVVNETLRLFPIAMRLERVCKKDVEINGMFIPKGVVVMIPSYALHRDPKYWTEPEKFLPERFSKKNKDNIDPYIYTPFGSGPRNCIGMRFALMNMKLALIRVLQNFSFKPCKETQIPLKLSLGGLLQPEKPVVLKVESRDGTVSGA

Canis familiaris [39] = test: AUC (0 to infinity) in beagle dog at 5 mg/kg, po administered via gavage as microsuspension along with high fat meal; type: ADME, organism-based, Canis lupus familiaris; parameters: dose 5 mg/kg, time infinity, route oral; conditions: in vivo
[40] = Protein binding in cynomolgus monkey serum at 53 nM after 1 hr by ultracentrifugation assay; type: ADME, cell-free, Macaca fascicularis; conditions: read-out: PB (converted)
[41] = biological target: Human immunodeficiency virus type 1 Gag protein (Human immunodeficiency virus 1, UniProt Q77YG1)
Description: Binding affinity to wild type HIV1 gag polyprotein containing viral like particle

[42] = Oral bioavailability in beagle dog at 5 mg/kg administered via gavage as microsuspension pre-treated with 40 mg famotidine in capsule form 1 hr before compound dosing; type: ADME, organism-based, Canis lupus familiaris; conditions: in vivo
[43] = Oral bioavailability in MDR1 a/b knockout mouse at 5 mg/kg administered via gavage; type: ADME, organism-based; conditions: in vivo
[44] = Half life in human hepatocytes at 0.5 uM after 1 hr in presence of NADPH by LC-MS/MS analysis; type: ADME, cell-based, Hepatocyte
[45] = Oral bioavailability in Sprague-Dawley rat at 5 mg/kg treated with 10 mg/kg elacridar immediately after compound dosing; type: ADME, organism-based; conditions: in vivo, with elacridar 10 mg/kg
[46] = Half life in cynomolgus monkey liver microsomes at 0.5 uM after 1 hr in presence of NADPH by LC-MS/MS analysis; type: ADME, Macaca fascicularis, microsome
[47] = Half life in mouse liver microsomes at 0.5 uM after 1 hr in presence of NADPH by LC-MS/MS analysis; type: ADME, microsome
[48] = Half life in mouse hepatocytes at 0.5 uM after 1 hr in presence of NADPH by LC-MS/MS analysis; type: ADME, cell-based, Hepatocyte

SMILES: C=C(C)[C@@H]1CC[C@]2(NCCN3CCS(=O)(=O)CC3)CC[C@]3(C)[C@H](CC[C@@H]4[C@@]5(C)CC=C(c6ccc(C(=O)O)cc6)C(C)(C)[C@@H]5CC[C@]43C)[C@@H]12 [BMS-955176]
- Cmax [1]: 1.8 µM
- solubility [2]: 1020 µg/mL (≈ 1480 µM)
- AUC(0-inf) [3]: 28.9 µM·h
- Vd [4]: 0.43 L/kg
- Tmax [5]: 10.5 h
- Vd [6]: 0.82 L/kg
- AUC(0-t) at 24 h (in vivo): 14.2 µM·h
- Activity (Salmonella typhimurium [7]): Non-Toxic
- F (Canis familiaris [8]): 67%
- Activity (Salmonella typhimurium [9]): Non-Toxic
- Tmax (Canis familiaris [10]): 187 h
- Cmax [11]: 4.04 µM
- solubility [12]: 280 µg/mL (≈ 405 µM)
- AUC (Canis familiaris [13]): 31.7 µM·h
- bioavailability [14]: 9%
- half-life at 1 h, 0.5 µM (in vitro [15]): > 2 h
- half-life at 0.5 µM [16]: > 2 h
- Tmax [17]: 3 h
- AUC(0-inf) [18]: 19.9 µM·h
- half-life at 1 h, 0.5 µM (in vitro [19]): > 2 h
- Tmax [20]: 13.5 h
- fraction unbound at 1 h, 0.053 µM [21]: 0.106
- Vd [22]: 1.1 L/kg
- Stability [23]: Stable
- half-life at 0.5 µM [24]: > 2 h
- Kd (Gag-Pol polyprotein [25]): 33.6 nM
- Tmax [26]: 7.3 h
- solubility (physchem): < 1 µg/mL
- bioavailability [27]: 36%
- CC50 (in vitro [28]): 9200 nM
- Stability [29]: Stable
- Cmax [30]: 4.43 µM
- Kd (Gag-Pol polyprotein [31]): 4.3 nM
- fraction unbound at 1 h, 0.053 µM [32]: 0.141
- Cmax [33]: 4.02 µM
- clearance [34]: 1.1 mL/min/kg
- Activity (Salmonella typhimurium [35]): Non-Toxic
- AUC(0-inf) [36]: 21.6 µM·h
- Cmax [37]: 1.2 µM
- AUC(0-inf) [38]: 276 µM·h
- Drug metabolism (Cytochrome P450 3A4): Metabolite_Detected
- AUC (Canis familiaris [39]): 643 µM·h
- fraction unbound at 1 h, 0.053 µM [40]: 0.216
- Kd [41]: 3.2 nM
- bioavailability [42]: 26%
- bioavailability [43]: 45%
- half-life at 0.5 µM [44]: > 2 h
- bioavailability [45]: 63%
- half-life at 0.5 µM [46]: 0.183 h
- half-life at 0.5 µM [47]: > 2 h
- half-life at 0.5 µM [48]: > 2 h
